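Dose response: 5 concentrations. Exposure: 48 h. Format: 96-well plates. Endpoint: linear interpolation; highest concentration if not reached. GI50 is the concentration that inhibits growth by half.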 The source made the active and inactive calls. No stated cut-off is given here; in the data, active = GI50 up to about 1.1 µM and inactive = higher.
What was measured:
Assay in all cases: DTP human tumour cell line panel, 48 h
DLD-1 = system: DLD-1
DMS-114 = system: DMS-114
DMS-273 = system: DMS-273
HOP-18 = system: HOP-18
KM-20L2 = system: KM-20L2
M19-MEL = system: M19-MEL
RXF 631 = system: RXF 631
SNB-78 = system: SNB-78
XF498 = system: XF498

SMILES	GI50 (DLD-1)	GI50 (DMS-114)	GI50 (DMS-273)	GI50 (HOP-18)	GI50 (KM-20L2)	GI50 (M19-MEL)	GI50 (RXF 631)	GI50 (SNB-78)	GI50 (XF498)
CCc1ccccc1NC(=O)C(=O)CC(=O)c1sc(Nc2ccccc2)nc1C	> 100 µM (inactive)	> 100 µM (inactive)	> 100 µM (inactive)	> 100 µM (inactive)	> 100 µM (inactive)	> 100 µM (inactive)	> 100 µM (inactive)	> 100 µM (inactive)	> 100 µM (inactive)
Cc1ccccc1NC(=O)CC(=O)n1nc(-c2ccccc2)c(/N=N/c2ccc([N+](=O)[O-])cc2)c1-c1ccccc1	18.7 µM (inactive)	10.6 µM (inactive)	21 µM (inactive)	16.5 µM (inactive)	16.7 µM (inactive)	–	12.4 µM (inactive)	26.9 µM (inactive)	21.8 µM (inactive)
CC(C)C1COC(c2cccc(C3=N[C@@H](C(C)C)CO3)n2)=N1 (stereo partly specified)	> 100 µM (inactive)	> 100 µM (inactive)	> 100 µM (inactive)	–	> 100 µM (inactive)	> 100 µM (inactive)	> 100 µM (inactive)	> 100 µM (inactive)	> 100 µM (inactive)
O=[N+]([O-])c1ccc2c(c1)OCCOCCOc1ccc([N+](=O)[O-])cc1OCCOCCO2	–	> 100 µM (inactive)	> 100 µM (inactive)	–	50.9 µM (inactive)	–	–	> 100 µM (inactive)	–
[N-]=[N+]=NC(c1cn(C2CC(O)C(CO)O2)c(=O)[nH]c1=O)C(Cl)Br (stereo unspecified)	> 100 µM (inactive)	> 100 µM (inactive)	> 100 µM (inactive)	47.2 µM (inactive)	> 100 µM (inactive)	> 100 µM (inactive)	–	> 100 µM (inactive)	–
COP1(=O)CC2C(Cl)(Cl)C2(C)C1 (stereo unspecified)	> 100 µM (inactive)	> 100 µM (inactive)	> 100 µM (inactive)	> 100 µM (inactive)	> 100 µM (inactive)	> 100 µM (inactive)	–	> 100 µM (inactive)	> 100 µM (inactive)
O=C(NCCCCCCNC(=O)c1cccc2ccccc12)c1cccc2ccccc12	59.7 µM (inactive)	> 100 µM (inactive)	2.02 µM (inactive)	24.6 µM (inactive)	> 100 µM (inactive)	–	47.2 µM (inactive)	5.42 µM (inactive)	3.2 µM (inactive)
NC(Cc1ccccc1)C(=O)OCN1C(=O)C2C3C=CC(C2C1=O)C1C2C(=O)N(COC(=O)C(N)Cc4ccccc4)C(=O)C2C31 (stereo unspecified)	26.6 µM (inactive)	16.1 µM (inactive)	–	–	23.9 µM (inactive)	–	–	–	–
CCCCCCCCCCCCCCCCCC(=O)NCCCNCCCNC(=O)CCCCCCCCCCCCCCCCC	> 100 µM (inactive)	> 100 µM (inactive)	> 100 µM (inactive)	> 100 µM (inactive)	> 100 µM (inactive)	> 100 µM (inactive)	> 100 µM (inactive)	–	–
O=C1C=Cc2ncccc2C1=O	18.7 µM (inactive)	16.5 µM (inactive)	17 µM (inactive)	> 52 µM (inactive)	> 45.9 µM (inactive)	–	21.4 µM (inactive)	31 µM (inactive)	24.6 µM (inactive)
COc1ccc2c3c(n(Cc4ccccc4)c(=O)c2c1)-c1cc(OC)c(OC)cc1C3C (stereo unspecified)	50.9 µM (inactive)	23 µM (inactive)	7.6 µM (inactive)	28.3 µM (inactive)	25.6 µM (inactive)	31.4 µM (inactive)	15.1 µM (inactive)	57.7 µM (inactive)	7.96 µM (inactive)
Nc1ccc2c(c1)Oc1c(F)c(F)cc3c(=O)c(C(=O)O)cn-2c13	43.9 µM (inactive)	> 100 µM (inactive)	–	51.5 µM (inactive)	53.6 µM (inactive)	34.9 µM (inactive)	–	–	–
O/N=C1/CCCC/C1=C\c1ccc(Cl)c(Cl)c1	32.9 µM (inactive)	19.3 µM (inactive)	24.7 µM (inactive)	22.1 µM (inactive)	20.5 µM (inactive)	37.3 µM (inactive)	–	22.9 µM (inactive)	19.8 µM (inactive)
COC1=CC(=C(C#N)/C(=N\c2ccccc2)SC)C=C(OC)C1=O	24.5 µM (inactive)	–	36.1 µM (inactive)	> 100 µM (inactive)	–	70.6 µM (inactive)	> 100 µM (inactive)	67.9 µM (inactive)	–
CN(c1ccccc1)c1cc2ccccc2nn1	> 100 µM (inactive)	52.2 µM (inactive)	> 100 µM (inactive)	> 100 µM (inactive)	> 100 µM (inactive)	59.2 µM (inactive)	34.1 µM (inactive)	> 100 µM (inactive)	67 µM (inactive)
C=C1c2[nH]c3ccccc3c2CC(C(=O)O)N1C(O)c1ccc(S(=O)(=O)O)cc1 (stereo unspecified)	> 100 µM (inactive)	> 100 µM (inactive)	> 100 µM (inactive)	–	–	> 100 µM (inactive)	> 100 µM (inactive)	> 100 µM (inactive)	> 100 µM (inactive)
COC(=O)c1ccccc1NC(=O)C(=O)NNC(=O)c1ccncc1	> 100 µM (inactive)	> 100 µM (inactive)	> 100 µM (inactive)	> 100 µM (inactive)	> 100 µM (inactive)	> 100 µM (inactive)	> 100 µM (inactive)	–	> 100 µM (inactive)
COc1ccc(/C=C2/C[N+](C)(C)C/C(=C/c3ccc(OC)cc3)C2=O)cc1	28.7 µM (inactive)	13.4 µM (inactive)	18.3 µM (inactive)	> 100 µM (inactive)	50 µM (inactive)	23.6 µM (inactive)	–	38.5 µM (inactive)	88.7 µM (inactive)
Cc1c(Cl)ccc2c1NC(=O)C2(O)C1Cc2ccccc2C1=O (stereo unspecified)	> 100 µM (inactive)	53.6 µM (inactive)	–	> 100 µM (inactive)	> 100 µM (inactive)	> 100 µM (inactive)	–	> 100 µM (inactive)	–
Clc1ccccc1C1=NN(c2ccccc2)C2c3ccccc3OCC12 (stereo unspecified)	> 100 µM (inactive)	> 100 µM (inactive)	83.8 µM (inactive)	27.8 µM (inactive)	73.3 µM (inactive)	> 100 µM (inactive)	> 100 µM (inactive)	> 100 µM (inactive)	> 100 µM (inactive)
CCCO/S(=N\S(=O)(=O)c1ccccc1)c1ccccc1[N+](=O)[O-] (stereo unspecified)	> 100 µM (inactive)	> 100 µM (inactive)	> 100 µM (inactive)	–	> 100 µM (inactive)	> 100 µM (inactive)	> 100 µM (inactive)	> 100 µM (inactive)	> 100 µM (inactive)
[N-]=[N+]=NC1CC(n2cc(COCC(F)(F)F)c(=O)[nH]c2=O)OC1CO (stereo unspecified)	> 100 µM (inactive)	> 100 µM (inactive)	> 100 µM (inactive)	–	> 100 µM (inactive)	> 100 µM (inactive)	–	> 100 µM (inactive)	> 100 µM (inactive)
Cc1cc2c(cc1C)[n+]([O-])c(C(=O)/C=C/c1ccc(Cl)cc1)c(C)[n+]2[O-]	28.8 µM (inactive)	29.1 µM (inactive)	33.1 µM (inactive)	25.2 µM (inactive)	36.6 µM (inactive)	35.3 µM (inactive)	–	> 100 µM (inactive)	21.6 µM (inactive)
CCc1nc2ccc(NCCN(C)C)c3c(=O)c4ccccc4n1c23	0.533 µM (active)	1.49 µM (inactive)	–	0.891 µM (active)	0.741 µM (active)	2 µM (inactive)	–	1.53 µM (inactive)	–
COC(=O)C(=O)C(CC(=O)Nc1ccc(C)cc1)C(=O)OC (stereo unspecified)	> 100 µM (inactive)	> 100 µM (inactive)	–	> 100 µM (inactive)	> 100 µM (inactive)	> 100 µM (inactive)	> 100 µM (inactive)	> 100 µM (inactive)	> 100 µM (inactive)
Cc1c(C(Cc2ccccc2N(C)C(=O)/C=C\C(=O)O)c2c[nH]c3ccccc23)c2ccccc2n1C (stereo unspecified)	18.2 µM (inactive)	14.2 µM (inactive)	17.1 µM (inactive)	–	18.1 µM (inactive)	15.7 µM (inactive)	14.2 µM (inactive)	21.1 µM (inactive)	21 µM (inactive)
NC(=O)c1ccccc1NC(=O)C(=O)C(C(=O)c1ccc2ccccc2c1)C1OC(=O)c2ccccc21 (stereo unspecified)	–	–	12.5 µM (inactive)	1.34 µM (inactive)	28.3 µM (inactive)	11.1 µM (inactive)	–	10.5 µM (inactive)	2.59 µM (inactive)
Clc1ccc(C2=NOC3C4CCC(C4)C23)cc1 (stereo unspecified)	> 100 µM (inactive)	–	> 100 µM (inactive)	> 100 µM (inactive)	–	> 100 µM (inactive)	–	> 100 µM (inactive)	–

— ChEMBL document CHEMBL1201862, “PubChem BioAssay data set” (2004)
